Data from the supplement of paper PMC11208160.

Assay: recombinant barcode read abundance after kanamycin selection (control-corrected) (log10(CPM+1)); higher = more efficient recombination; sequences stand for … in AGTGCAGAGAAAATCGGCCAGTTTTCTCTGCCTGCAGTCCGCATGCCGT…AGATTTATGCAGCGGACTGCCTTTCTCCCAAAGTGATAAACCGGACAGTATCATGGACCGGTTTTCCCGGTAATCCGTATTTGCAAGGTTGGTTTCACT; site = the 11-nt target
In short: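 Targets were screened in pooled form in E. coli against IS621 bridge RNA target-binding loops. Recombination efficiency is based on barcode counts at recombinant junctions in counts per million, averaged and corrected for the control. Numbers are shown as log10(CPM+1), with duplicate plates on chloramphenicol/ampicillin LB agar (control) or chloramphenicol/ampicillin/kanamycin with 0.1 mM IPTG.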
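Also: IS621 recombinase and bridge RNA in Escherichia coli cells.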

Row | Sequence | recombinant barcode read abundance (log10)
1 | CCGTCTACTTGGGTTCTAACCTGTTGCTC (site CCGTCTACTTA) | 0.0131
2 | CCGTTGTCTTGGGTTCTAACCTGTTGCTA (site CCGTTGTCTTA) | 0.48
3 | CCGTTGTCTTGGGTTCTAACCTGTTGCTA (site GGTCGTACTAG) | 0.0443
4 | CCTAAGTCTTGGGTTCTAACCTGTTGCCA (site CCTAAGTCTTG) | 0.11
5 | CCTAAGTCTTGGGTTCTAACCTGTTGCCA (site GACTTAACTAA) | 0.133
6 | CCTAGAACTTGGGTTCTAACCTGTTGCCT (site CCTAGAACTAG) | 0.134
7 | CCTAGAACTTGGGTTCTAACCTGTTGCCT (site CCTAGACCTAG) | 0.0135
8 | CCTAGAACTTGGGTTCTAACCTGTTGCCT (site CCTAGAGCTAG) | 0.126
9 | CCTAGAACTTGGGTTCTAACCTGTTGCCT (site CCTAGATCTAG) | 0.0929
10 | CCTCATACTTGGGTTCTAACCTGTTGCCA (site CCTCATACTTG) | 0.179
11 | CCTCATACTTGGGTTCTAACCTGTTGCCA (site GGAGTACCTAT) | 0.02
12 | CCTCCCTCTTGGGTTCTAACCTGTTGCTG (site CCTCCCTCTCA) | 2.49
13 | CCTCCCTCTTGGGTTCTAACCTGTTGCTG (site CCTCCCTCTTA) | 0.036
14 | CCTCGATCTTGGGTTCTAACCTGTTGCAT (site CCTCGATCTAT) | 1.59
15 | CCTCGATCTTGGGTTCTAACCTGTTGCAT (site TCTCGATCTAT) | 0.185
16 | CCTCGGCCTTGGGTTCTAACCTGTTGCAT (site CCACGGCCTAT) | 0.0708
17 | CCTCGGCCTTGGGTTCTAACCTGTTGCAT (site CCTCGGCCTAT) | 0.862
18 | CCTCGTCCTTGGGTTCTAACCTGTTGCCC (site CCTCGTCCTGG) | 0.175
19 | CCTCGTCCTTGGGTTCTAACCTGTTGCCC (site TAGGACTCTAT) | 0.00798
20 | CCTCTGCCTTGGGTTCTAACCTGTTGCCT (site CCTCTGCCTAG) | 0.855
21 | CCTCTGCCTTGGGTTCTAACCTGTTGCCT (site CGTCTCCCTAG) | 0.103
22 | CCTGAATCTTGGGTTCTAACCTGTTGCCT (site CCTGAATCTAG) | 0.1

Row | Sequence | recombinant barcode read abundance (log10)
23 | CCTGAATCTTGGGTTCTAACCTGTTGCCT (site CCTGACTCTAG) | 0.19
24 | CCTGAATCTTGGGTTCTAACCTGTTGCCT (site CCTGAGTCTAG) | 0.279
25 | CCTGAATCTTGGGTTCTAACCTGTTGCCT (site CCTGATTCTAG) | 0.073
26 | CCTGAGTCTTGGGTTCTAACCTGTTGCCT (site CCTGAATCTAG) | 0.289
27 | CCTGAGTCTTGGGTTCTAACCTGTTGCCT (site CCTGACTCTAG) | 0.0437
28 | CCTGAGTCTTGGGTTCTAACCTGTTGCCT (site CCTGAGTCTAG) | 1.01
29 | CCTGAGTCTTGGGTTCTAACCTGTTGCCT (site CCTGATTCTAG) | 0.0908
30 | CCTGGGCCTTGGGTTCTAACCTGTTGCCT (site CATGGGCCTAG) | 0.0944
31 | CCTGGGCCTTGGGTTCTAACCTGTTGCCT (site CCTGGGCCTAG) | 0.11
32 | CCTGGGCCTTGGGTTCTAACCTGTTGCCT (site CGTGGGCCTAG) | 0.0559
33 | CCTGGGCCTTGGGTTCTAACCTGTTGCCT (site CTTGGGCCTAG) | 0
34 | CCTGGGTCTTGGGTTCTAACCTGTTGCTT (site CATGGGTCTAG) | 0.0557
35 | CCTGGGTCTTGGGTTCTAACCTGTTGCTT (site CCTGGGTCTAA) | 1.08
36 | CCTGTCACTTGGGTTCTAACCTGTTGCCA (site CCTGTCACTTG) | 0.474
37 | CCTGTCACTTGGGTTCTAACCTGTTGCCA (site TACCGAGCTCA) | 0.11
38 | CCTTGAGCTTGGGTTCTAACCTGTTGCTG (site CCTTGAGCTCA) | 0.308
39 | CCTTGAGCTTGGGTTCTAACCTGTTGCTG (site GCTTGAGCTCG) | 0.0694
40 | CCTTGTACTTGGGTTCTAACCTGTTGCTT (site AGCATCTCTCG) | 0.0216
41 | CCTTGTACTTGGGTTCTAACCTGTTGCTT (site CCTTGTACTAA) | 0.131
42 | CCTTTGACTTGGGTTCTAACCTGTTGCTT (site CCTTTGACTAA) | 0.0825
43 | CCTTTGACTTGGGTTCTAACCTGTTGCTT (site CCTTTGTCTAA) | 0.156
44 | CGAACCGCTTGGGTTCTAACCTGTTGCCT (site CAAACCGCTAG) | 0.26

Row | Sequence | recombinant barcode read abundance (log10)
45 | CGAACCGCTTGGGTTCTAACCTGTTGCCT (site CCAACCGCTAG) | 0.0439
46 | CGAACCGCTTGGGTTCTAACCTGTTGCCT (site CGAACCGCTAG) | 0.974
47 | CGAACCGCTTGGGTTCTAACCTGTTGCCT (site CTAACCGCTAG) | 0.0258
48 | CGAACCTCTTGGGTTCTAACCTGTTGCCG (site CGAACCTCTCG) | 0.903
49 | CGAACCTCTTGGGTTCTAACCTGTTGCCG (site CGAATCCCTCG) | 0.0358
50 | CGAACTACTTGGGTTCTAACCTGTTGCAT (site CGAACTACTAA) | 0.215
51 | CGAACTACTTGGGTTCTAACCTGTTGCAT (site CGAACTACTAC) | 0.168
52 | CGAACTACTTGGGTTCTAACCTGTTGCAT (site CGAACTACTAG) | 0.0576
53 | CGAACTACTTGGGTTCTAACCTGTTGCAT (site CGAACTACTAT) | 0.239
54 | CGAACTACTTGGGTTCTAACCTGTTGCTT (site CGAACTACTAA) | 0.142
55 | CGAACTACTTGGGTTCTAACCTGTTGCTT (site CGAACTACTAC) | 0.205
56 | CGAACTACTTGGGTTCTAACCTGTTGCTT (site CGAACTACTAG) | 0.202
57 | CGAACTACTTGGGTTCTAACCTGTTGCTT (site CGAACTACTAT) | 0.0384
58 | CGAAGGACTTGGGTTCTAACCTGTTGCTA (site CGAAGGACTTA) | 0.973
59 | CGAAGGACTTGGGTTCTAACCTGTTGCTA (site CTAAGGACTTA) | 0.231
60 | CGAATCACTTGGGTTCTAACCTGTTGCCT (site CGAATCACTAG) | 0.686
61 | CGAATCACTTGGGTTCTAACCTGTTGCCT (site CGAATCCCTAG) | 0.062
62 | CGAATCACTTGGGTTCTAACCTGTTGCCT (site CGAATCGCTAG) | 0.182
63 | CGAATCACTTGGGTTCTAACCTGTTGCCT (site CGAATCTCTAG) | 0.0867
64 | CGAATCCCTTGGGTTCTAACCTGTTGCCG (site CGAACCTCTCG) | 0.185
65 | CGAATCCCTTGGGTTCTAACCTGTTGCCG (site CGAATCCCTCG) | 0.906
66 | CGACAATCTTGGGTTCTAACCTGTTGCTT (site CGACAATCTAA) | 0.0157

Row | Sequence | recombinant barcode read abundance (log10)
67 | CGACAATCTTGGGTTCTAACCTGTTGCTT (site TCTAGGACTTT) | 0.27
68 | CGACACACTTGGGTTCTAACCTGTTGCCT (site CGACACACTAG) | 0.135
69 | CGACACACTTGGGTTCTAACCTGTTGCCT (site CGCCACACTAG) | 0.0974
70 | CGACACACTTGGGTTCTAACCTGTTGCCT (site CGGCACACTAG) | 0.0559
71 | CGACACACTTGGGTTCTAACCTGTTGCCT (site CGTCACACTAG) | 0.0536
72 | CGACAGGCTTGGGTTCTAACCTGTTGCCT (site AGACTGGCTAG) | 0.073
73 | CGACAGGCTTGGGTTCTAACCTGTTGCCT (site CGACAGGCTAG) | 0.439
74 | CGACGCACTTGGGTTCTAACCTGTTGCGG (site CGACGCACTCC) | 0.584
75 | CGACGCACTTGGGTTCTAACCTGTTGCGG (site TAGTTGTCTAA) | 0.0412
76 | CGAGACGCTTGGGTTCTAACCTGTTGCCT (site CCATACGCTAG) | 0.109
77 | CGAGACGCTTGGGTTCTAACCTGTTGCCT (site CGAGACGCTAG) | 1.87
78 | CGAGAGACTTGGGTTCTAACCTGTTGCTT (site CAAGAGTCTAA) | 0.0807
79 | CGAGAGACTTGGGTTCTAACCTGTTGCTT (site CGAGAGACTAA) | 0.994
80 | CGAGAGTCTTGGGTTCTAACCTGTTGCGG (site AGAGAGGCTCC) | 0.119
81 | CGAGAGTCTTGGGTTCTAACCTGTTGCGG (site CGAGAGTCTCC) | 1.31
82 | CGAGATTCTTGGGTTCTAACCTGTTGCCT (site CAAGATTCTAG) | 0.331
83 | CGAGATTCTTGGGTTCTAACCTGTTGCCT (site CCAGATTCTAG) | 0.271
84 | CGAGATTCTTGGGTTCTAACCTGTTGCCT (site CGAGATTCTAG) | 0.755
85 | CGAGATTCTTGGGTTCTAACCTGTTGCCT (site CTAGATTCTAG) | 0.332
86 | CGAGCTCCTTGGGTTCTAACCTGTTGCGT (site CGAGCTCCTAA) | 0.0215
